Experimental data taken from ChEMBL document CHEMBL1821601, “Impact of passive permeability and gut efflux transport on the oral bioavailability of novel series of piperidine-based renin inhibitors in rodents” (Bioorg Med Chem Lett, 2011).
Blank lines part the entries; values can stand above or below the compound they belong to.

Key:
[1] = AUC (0 to 24 hrs) in rat at 3 mg/kg, po pre-dosed with 50 mg/kg, po of Pgp and Bcrp inhibitor elacridar 15 mins before drug challenge; assay type: ADME, organism-based; parameters: dose 3 mg/kg, time < 24 hr, route oral; conditions: plasma
[2] = (§1) Oral bioavailability in rat at 3 mg/kg; assay type: ADME, organism-based; conditions: in vivo
[3] = Oral bioavailability in rat at 10 mg/kg; assay type: ADME, organism-based; conditions: in vivo
[4] = (§2) Oral bioavailability in rat at 30 mg/kg; assay type: ADME, organism-based; conditions: in vivo
rat Mdr1a = test: Apparent permeability across pig LLC-PK1 cells transfected with rat Mdr1a; assay type: ADME, cell-based, Sus scrofa
[5] = as §1; assay type: ADME, organism-based; conditions: in vivo; remark: listed apart in the source
[6] = Plasma clearance in rat at 5 mg/kg, iv; assay type: ADME, organism-based; parameters: dose 5 mg/kg, route intravenous
[7] = Plasma clearance in rat at 0.5 mg/kg, iv; assay type: ADME, organism-based; parameters: dose 0.5 mg/kg, route intravenous
[8] = Oral bioavailability in rat at 3 mg/kg pre-dosed with 50 mg/kg, po of Pgp and Bcrp inhibitor elacridar 15 mins before drug challenge; assay type: ADME, organism-based; conditions: in vivo
[9] = Drug uptake in MDR1a-deficient FVB mouse brain at 5 mg/kg, iv after 24 hrs; assay type: ADME, organism-based; parameters: dose 5 mg/kg, route intravenous; conditions: read-out: Drug uptake
[10] = Blood clearance in FVB mouse expressing wild type MDR1a at 30 mg/kg, po and 5 mg/kg, iv; assay type: ADME, organism-based; conditions: whole blood
[11] = AUC (0 to 24 hrs) in FVB mouse expressing wild type MDR1a at 30 mg/kg, po; assay type: ADME, organism-based; parameters: time < 24 hr, dose 30 mg/kg, route oral; conditions: plasma
[12] = Drug uptake in FVB mouse expressing wild type MDR1a brain at 30 mg/kg, po after 24 hrs; assay type: ADME, organism-based; parameters: dose 30 mg/kg, route oral; conditions: read-out: Drug uptake
Mus musculus [13] = test: Ratio of AUC (0 to 24 hrs) in MDR1a-deficient FVB mouse to AUC (0 to 24 hrs) in FVB mouse expressing wild type MDR1a at 30 mg/kg, po; assay type: ADME, organism-based; parameters: dose 30 mg/kg, route oral; conditions: in vivo
[14] = Drug uptake in MDR1a-deficient FVB mouse brain at 30 mg/kg, po after 24 hrs; assay type: ADME, organism-based; parameters: dose 30 mg/kg, route oral; conditions: read-out: Drug uptake
Mus musculus [15] = test: Volume of distribution at steady state in MDR1a-deficient FVB mouse at 30 mg/kg, po and 5 mg/kg, iv; assay type: ADME, organism-based; conditions: in vivo
Mus musculus [16] = test: Volume of distribution at steady state in FVB mouse expressing wild type MDR1a at 30 mg/kg, po and 5 mg/kg, iv; assay type: ADME, organism-based; conditions: in vivo
Mus musculus [17] = test: Ratio of blood clearance in MDR1a-deficient FVB mouse to blood clearance in FVB mouse expressing wild type MDR1a at 30 mg/kg, po and 5 mg/kg, iv; assay type: ADME, organism-based; conditions: in vivo
Mus musculus [18] = test: Ratio of oral bioavailability in MDR1a-deficient FVB mouse to oral bioavailability in FVB mouse expressing wild type MDR1a at 30 mg/kg; assay type: ADME, organism-based; conditions: in vivo
[19] = Blood clearance in MDR1a-deficient FVB mouse at 30 mg/kg, po and 5 mg/kg, iv; assay type: ADME, organism-based; conditions: whole blood
Brain [20] = test: Ratio of drug uptake in MDR1a-deficient FVB mouse brain to drug uptake in FVB mouse expressing wild type MDR1a brain at 5 mg/kg, iv after 24 hrs; assay type: ADME, organism-based; parameters: dose 5 mg/kg, route intravenous; conditions: in vivo
[21] = AUC (0 to 24 hrs) in MDR1a-deficient FVB mouse at 30 mg/kg, po; assay type: ADME, organism-based; parameters: time < 24 hr, dose 30 mg/kg, route oral; conditions: plasma
[22] = Drug uptake in FVB mouse expressing wild type MDR1a brain at 5 mg/kg, iv after 24 hrs; assay type: ADME, organism-based; parameters: dose 5 mg/kg, route intravenous; conditions: read-out: Drug uptake
Brain [23] = test: Ratio of drug uptake in MDR1a-deficient FVB mouse brain to drug uptake in FVB mouse expressing wild type MDR1a brain at 30 mg/kg, po after 24 hrs; assay type: ADME, organism-based; parameters: dose 30 mg/kg, route oral; conditions: in vivo
Mus musculus [24] = test: Ratio of volume of distribution at steady state in MDR1a-deficient FVB mouse to volume of distribution at steady state in FVB mouse expressing wild type MDR1a at 30 mg/kg, po and 5 mg/kg, iv; assay type: ADME, organism-based; conditions: in vivo
[25] = Oral bioavailability in FVB mouse expressing wild type MDR1a at 30 mg/kg; assay type: ADME, organism-based; conditions: in vivo
[26] = Oral bioavailability in MDR1a-deficient FVB mouse at 30 mg/kg; assay type: ADME, organism-based; conditions: in vivo
[27] = Apparent Passive permeability across pig LLC-PK1 cells; assay type: ADME, cell-based, Sus scrofa
[28] = Lipophilicity, Log D of the compound at pH 7 by RP-HPLC analysis; assay type: physicochemical; conditions: buffer
[29] = Oral bioavailability in dog at 3 mg/kg; assay type: ADME, organism-based, Canis lupus familiaris; conditions: in vivo
[30] = as §2; assay type: ADME, organism-based; conditions: in vivo; remark: listed apart in the source
[31] = Plasma clearance in rat at 30 mg/kg, po and 5 mg/kg, iv; assay type: ADME, organism-based
[32] = Plasma clearance in dog at 3 mg/kg, po and 1 mg/kg, iv; assay type: ADME, organism-based, Canis lupus familiaris
[33] = Drug recovery in permanently bile-duct cannulated rat feces supplimented with artificial bile at 20 mg/kg, po after 48 hrs by HPLC-MS/MS analysis; assay type: ADME, organism-based; parameters: dose 20 mg/kg, route oral; conditions: faeces, read-out: Drug uptake
[34] = Drug recovery in permanently bile-duct cannulated rat bile supplimented with artificial bile at 20 mg/kg, po after 48 hrs by HPLC-MS/MS analysis; assay type: ADME, organism-based; parameters: dose 20 mg/kg, route oral; conditions: read-out: Drug uptake
[35] = Drug recovery in permanently bile-duct cannulated rat supplimented with artificial bile at 5 mg/kg, iv after 48 hrs by HPLC-MS/MS analysis; assay type: ADME, organism-based; parameters: dose 5 mg/kg, route intravenous; conditions: in vivo, read-out: Drug uptake
[36] = Drug recovery in permanently bile-duct cannulated rat bile supplimented with artificial bile at 5 mg/kg, iv after 48 hrs by HPLC-MS/MS analysis; assay type: ADME, organism-based; parameters: dose 5 mg/kg, route intravenous; conditions: read-out: Drug uptake
[37] = Drug recovery in permanently bile-duct cannulated rat urine supplimented with artificial bile at 20 mg/kg, po after 48 hrs by HPLC-MS/MS analysis; assay type: ADME, organism-based; parameters: dose 20 mg/kg, route oral; conditions: read-out: Drug uptake
[38] = Drug recovery in permanently bile-duct cannulated rat urine supplimented with artificial bile at 5 mg/kg, iv after 48 hrs by HPLC-MS/MS analysis; assay type: ADME, organism-based; parameters: dose 5 mg/kg, route intravenous; conditions: read-out: Drug uptake
[39] = Drug recovery in permanently bile-duct cannulated rat supplimented with artificial bile at 20 mg/kg, po after 48 hrs by HPLC-MS/MS analysis; assay type: ADME, organism-based; parameters: dose 20 mg/kg, route oral; conditions: in vivo, read-out: Drug uptake
[40] = Drug recovery in permanently bile-duct cannulated rat feces supplimented with artificial bile at 5 mg/kg, iv after 48 hrs by HPLC-MS/MS analysis; assay type: ADME, organism-based; parameters: dose 5 mg/kg, route intravenous; conditions: faeces, read-out: Drug uptake
LLC-PK1 = test: Ratio of permeability from basolateral to apical side to apical to basolateral side of pig LLC-PK1 cells transfected with rat Mdr1a; assay type: ADME, cell-based, Sus scrofa
[41] = Oral bioavailability in rat at 0.3 mg/kg pre-dosed with 50 mg/kg, po of Pgp and Bcrp inhibitor elacridar 15 mins before drug challenge; assay type: ADME, organism-based; conditions: in vivo
[42] = Oral bioavailability in rat at 0.3 mg/kg; assay type: ADME, organism-based; conditions: in vivo
[43] = Cmax in rat plasma at 3 mg/kg, po; assay type: ADME, organism-based; parameters: dose 3 mg/kg, route oral

- AUC(0-t) at 24 h [1]: 0.033 µM·h
- bioavailability [2]: 2%
- bioavailability [3]: 21%
- bioavailability [4]: 24%
- Papp (rat Mdr1a): 3 ×10⁻⁶ cm/s
- bioavailability [5]: 2%
- clearance [6]: 67 mL/min/kg
- clearance [7]: 57 mL/min/kg
- bioavailability [8]: 20%
Structure (SMILES): COCCCc1cc(Cl)c(Cl)c(CN(C(=O)[C@H]2CNCC[C@@H]2c2ccn(C)c(=O)c2)C2CC2)c1

- Papp [27]: 22 ×10⁻⁶ cm/s
- bioavailability [2]: 29%
- logD [28]: 2.6
- Ratio (LLC-PK1): 19
- Papp (rat Mdr1a): 22 ×10⁻⁶ cm/s
- bioavailability [5]: 29%
- bioavailability [41]: 14%
- bioavailability [42]: 17%
- bioavailability [8]: 24%
Structure (SMILES): COCCOc1cc(CCOC)cc(CN(C(=O)[C@H]2CNCC[C@]2(O)c2ccc(F)c(F)c2)C2CC2)c1

- Cmax [43]: 200 nM
Structure (SMILES): COc1cc2c(cc1OC)CN(CCc1ccc(NC(=O)c3cccc4c(=O)c5cccc(OC)c5[nH]c34)cc1)CC2 [ELACRIDAR]

More lines, now with the values behind:

Structure (SMILES): COCCCc1cc(CN(C(=O)[C@H]2CNCC[C@@H]2c2ccn(C)c(=O)c2)C2CC2)cc(Br)c1C
- concentration at 24 h [9]: 239 nM
- clearance [10]: 82 mL/min/kg
- AUC(0-t) at 24 h [1]: 0.044 µM·h
- AUC(0-t) at 24 h [11]: 0.8 µM·h
- concentration at 24 h [12]: 8 nM
- fold change (FC) (Mus musculus [13]): 5
- bioavailability [2]: 3%
- concentration at 24 h [14]: 504 nM
- Vdss (Mus musculus [15]): 4.7 L/kg
- Vdss (Mus musculus [16]): 3.7 L/kg
- bioavailability [3]: 7%
- fold change (FC) (Mus musculus [17]): 0.9
- fold change (FC) (Mus musculus [18]): 4
- bioavailability [4]: 17%
- Papp (rat Mdr1a): 2 ×10⁻⁶ cm/s
- bioavailability [5]: 6%
- clearance [19]: 72 mL/min/kg
- fold change (FC) (Brain [20]): 32
- clearance [6]: 75 mL/min/kg
- AUC(0-t) at 24 h [21]: 4 µM·h
- concentration at 24 h [22]: 7.3 nM
- fold change (FC) (Brain [23]): 63
- clearance [7]: 125 mL/min/kg
- fold change (FC) (Mus musculus [24]): 1.3
- bioavailability [25]: 7%
- bioavailability [26]: 29%
- bioavailability [8]: 31%

Structure (SMILES): COCCc1ccc(Cl)c(CN(C(=O)[C@H]2CNCC[C@]2(O)c2ccc(F)c(F)c2)C2CC2)c1
- Papp [27]: 11 ×10⁻⁶ cm/s
- logD [28]: 3.1
- bioavailability [5]: 16%

Structure (SMILES): COCCCc1cc(CN(C(=O)[C@H]2CNCC[C@@H]2c2ccc(OCCOc3c(Cl)cc(C)cc3Cl)cc2)C2CC2)cc(OCCOC)c1.Cl
- bioavailability [29]: 44%
- bioavailability [30]: 27%
- clearance [31]: 11 mL/min/kg
- clearance [32]: 26 mL/min/kg

Structure (SMILES): COCCCc1cc(CN(C(=O)[C@H]2CNCC[C@@H]2c2ccn(C)c(=O)c2)C2CC2)cc(OCCOC)c1.Cl
- Papp [27]: 2 ×10⁻⁶ cm/s
- dose excreted at 48 h [33]: 73%
- dose excreted at 48 h [34]: 0.1%
- logD [28]: 0.9
- bioavailability [29]: 1%
- bioavailability [30]: 3%
- dose excreted at 48 h [35]: 45%
- dose excreted at 48 h [36]: 25%
- dose excreted at 48 h [37]: 2%
- bioavailability [4]: 3%
- Papp (rat Mdr1a): < 3 ×10⁻⁶ cm/s
- bioavailability [5]: 0.5%
- clearance [31]: 31 mL/min/kg
- dose excreted at 48 h [38]: 10%
- clearance [6]: 31 mL/min/kg
- dose excreted at 48 h [39]: 75%
- clearance [7]: 43 mL/min/kg
- dose excreted at 48 h [40]: 10%
- clearance [32]: 9.2 mL/min/kg

Structure (SMILES): COCCc1ccc(Cl)c(CN(C(=O)[C@H]2CNCC[C@@H]2c2ccn(C)c(=O)c2)C2CC2)c1
- Papp [27]: 1 ×10⁻⁶ cm/s
- logD [28]: 1
- bioavailability [5]: 1%
